Measurements from ChEMBL document CHEMBL4390652, “Design, biological evaluation and X-ray crystallography of nanomolar multifunctional ligands targeting simultaneously acetylcholinesterase and glycogen synthase kinase-3” (Eur J Med Chem, 2019).

Experiments:
[1] = target: Phosphorylase b kinase gamma catalytic chain, skeletal muscle/heart isoform (Homo sapiens) (UniProt Q16816); assay: Binding affinity to wild-type human full length PHKG1 (M1 to Y387 residues) expressed in bacterial expression system assessed as residual binding level at 10 uM by Kinomescan method relative to control
[2] = target: BDNF/NT-3 growth factors receptor (Homo sapiens) (UniProt Q16620); assay: Binding affinity to wild-type human partial length TRKB (Q547 to G838 residues) expressed in mammalian expression system assessed as residual binding level at 10 uM by Kinomescan method relative to control
[3] = target: Dual specificity protein kinase TTK (Homo sapiens) (UniProt P33981); assay: Binding affinity to wild-type human partial length TTK (N505 to V798 residues) expressed in bacterial expression system assessed as residual binding level at 10 uM by Kinomescan method relative to control
[4] = target: Bone morphogenetic protein receptor type-1A (Homo sapiens) (UniProt P36894); assay: Binding affinity to wild-type human partial length BMPR1A (Q214 to I532 residues) expressed in bacterial expression system assessed as residual binding level at 10 uM by Kinomescan method relative to control
[5] = test system: Hepatocyte growth factor receptor (Homo sapiens), P08581 [M1250T]; assay: Binding affinity to human partial length MET M1250T mutant (D1010 to S1367 residues) expressed in bacterial expression system assessed as residual binding level at 10 uM by Kinomescan method relative to control
[6] = target: Mitogen-activated protein kinase kinase kinase 4 (Homo sapiens) (UniProt Q9Y6R4); assay: Binding affinity to wild-type human partial length MAP3K4 (G1319 to E1608 residues) expressed in bacterial expression system assessed as residual binding level at 10 uM by Kinomescan method relative to control
[7] = target: Serine/threonine-protein kinase B-raf (Homo sapiens) (UniProt P15056); assay: Binding affinity to wild-type human partial length BRAF (S429 to E741 residues) expressed in mammalian expression system assessed as residual binding level at 10 uM by Kinomescan method relative to control
[8] = target: Casein kinase II subunit alpha' (Homo sapiens) (UniProt P19784); assay: Binding affinity to wild-type human full length CSNK2A2 (M1 to R350 residues) expressed in mammalian expression system assessed as residual binding level at 10 uM by Kinomescan method relative to control
[9] = target: Ribosomal protein S6 kinase alpha-1 (Homo sapiens) (UniProt Q15418); assay: Binding affinity to wild-type human partial length C-terminal RSK1 kinase domain 2 (P360 to L681 residues) expressed in bacterial expression system assessed as residual binding level at 10 uM by Kinomescan method relative to control
[10] = test system: Hepatocyte growth factor receptor (Homo sapiens), P08581 [Y1235D]; assay: Binding affinity to human partial length MET Y1235D mutant (D1010 to S1367 residues) expressed in bacterial expression system assessed as residual binding level at 10 uM by Kinomescan method relative to control
[11] = target: NUAK family SNF1-like kinase 1 (Homo sapiens) (UniProt O60285); assay: Binding affinity to wild-type human partial length ARK5 (E25 to I332 residues) expressed in bacterial expression system assessed as residual binding level at 10 uM by Kinomescan method relative to control
[12] = test system: Mast/stem cell growth factor receptor Kit (Homo sapiens), P10721 [L576P]; assay: Binding affinity to human partial length KIT L576P mutant (Y545 to D952 residues) expressed in bacterial expression system assessed as residual binding level at 10 uM by Kinomescan method relative to control
[13] = target: MAP kinase-interacting serine/threonine-protein kinase 2 (Homo sapiens) (UniProt Q9HBH9); assay: Binding affinity to wild-type human partial length MKNK2 (G63 to S388 residues) expressed in mammalian expression system assessed as residual binding level at 10 uM by Kinomescan method relative to control
[14] = target: 5'-AMP-activated protein kinase catalytic subunit alpha-1 (Homo sapiens) (UniProt Q13131); assay: Binding affinity to wild-type human partial length AMPK alpha1 (M1 to E306 residues) expressed in bacterial expression system assessed as residual binding level at 10 uM by Kinomescan method relative to control
[15] = target: Receptor-type tyrosine-protein kinase FLT3 (Homo sapiens) (UniProt P36888); assay: Binding affinity to wild-type human partial length FLT3 (V592 to Y969 residues) expressed in bacterial expression system assessed as residual binding level at 10 uM by Kinomescan method relative to control
[16] = target: Serine/threonine-protein kinase PAK 5 (Homo sapiens) (UniProt Q9P286); assay: Binding affinity to wild-type human partial length PAK7 (Y400 to H719 residues) expressed in bacterial expression system assessed as residual binding level at 10 uM by Kinomescan method relative to control
[17] = target: Ephrin type-A receptor 7 (Homo sapiens) (UniProt Q15375); assay: Binding affinity to wild-type human partial length EPHA7 (Y608 to S912 residues) expressed in bacterial expression system assessed as residual binding level at 10 uM by Kinomescan method relative to control
[18] = target: Ribosomal protein S6 kinase alpha-1 (Homo sapiens) (UniProt Q15418); assay: Binding affinity to wild-type human partial length N-terminal RSK1 Kinase domain 1 (M1 to E388 residues) expressed in bacterial expression system assessed as residual binding level at 10 uM by Kinomescan method relative to control

Question: Which Activity [1] does the source give for O=C(Nc1cc(-c2cn(CCNc3c4c(nc5ccccc35)CCCC4)nn2)ccn1)Nc1cccc2c1C1CCCCN1C2=O (racemic) here?
Answer: Its Activity is 54%.

Question: And the Activity [2]?
Answer: Its Activity is 17%.

Question: And the Activity [3]?
Answer: The Activity was 9.9%.

Question: And the Activity [4]?
Answer: Its Activity is 92%.

Question: What about the Activity [5] of the same compound?
Answer: The Activity was 91%.

Question: What about the Activity [6] of the same compound?
Answer: The Activity was 79%.

Question: What about the Activity [7] of the same compound?
Answer: The Activity was 51%.

Question: What about the Activity [8] of the same compound?
Answer: The Activity was 5%.

Question: What about the Activity [9] of the same compound?
Answer: Its Activity is 53%.

Question: And the Activity [10]?
Answer: The Activity was 88%.

Question: And the Activity [11]?
Answer: The Activity was 0.85%.

Question: And the Activity [12]?
Answer: Its Activity is 0%.

Question: What about the Activity [13] of the same compound?
Answer: Its Activity is 72%.

Question: What about the Activity [14] of the same compound?
Answer: Its Activity is 31%.

Question: And the Activity [15]?
Answer: The Activity was 0.55%.

Question: What about the Activity [16] of the same compound?
Answer: Its Activity is 8.9%.

Question: And the Activity [17]?
Answer: The Activity was 76%.

Question: What about the Activity [18] of the same compound?
Answer: Its Activity is 3.9%.
